# Source: PMC12095868, “The Fsr transporter of Sinorhizobium meliloti contributes to antimicrobial resistance and symbiosis with alfalfa” (Microbiology, 2025)
# Target: T1, Fsr (Sinorhizobium meliloti, UniProt Q92RK8)
# T1 construct: native full-length protein in S. meliloti 1021 cells, compared with fsr::loxSp null mutant; 398 residues; MFS membrane transporter
# Test: fluorometric accumulation and efflux assay, wild-type versus fsr null mutant cells
# Type: cell-based
# Conditions: whole cells, 10 ug/ml EtBr, 0.4% glucose as energy source; CCCP 25 ug/ml as decoupler in parallel; proton-dependent efflux
# T1 sequence (Q92RK8 entry or part of it): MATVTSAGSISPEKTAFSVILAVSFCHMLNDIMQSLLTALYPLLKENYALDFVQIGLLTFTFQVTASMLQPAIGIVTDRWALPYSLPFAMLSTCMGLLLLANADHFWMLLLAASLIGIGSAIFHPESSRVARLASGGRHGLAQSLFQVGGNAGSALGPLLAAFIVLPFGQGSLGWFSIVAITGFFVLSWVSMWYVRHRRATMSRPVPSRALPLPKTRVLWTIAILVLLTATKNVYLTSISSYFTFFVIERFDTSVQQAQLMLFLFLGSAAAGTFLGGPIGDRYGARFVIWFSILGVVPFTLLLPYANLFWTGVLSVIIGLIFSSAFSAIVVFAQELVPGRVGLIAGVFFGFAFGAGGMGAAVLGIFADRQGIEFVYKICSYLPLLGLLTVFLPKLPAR
smiles,measurement,value
"CC[n+]1c(-c2ccccc2)c2cc(N)ccc2c2ccc(N)cc21 [EtBr, ethidium bromide]","fluorometric accumulation and efflux assay, wild-type versus fsr null mutant cel",The rate and extent of EtBr efflux were higher in the wild type
